# From patent US8975223B2, “Methods for treating metabolic disorders and obesity with a peptide comprising the amino acid sequence of SEQ ID No. 146” (Marcadia Biotech, Inc., priority 2010, dated 2015)
# “Also recorded” adds a separate entry of the source. Where no end group is shown, it is not given here. [ ]: non-standard residue; d: D form. Aib = CC(C)(N)C(=O)O
# Columns and labels:
# Assay type in all cases: in vivo, human
# [1] = test system: beta cell response to a glucose load; assay: Phase I two-part study, beta cell response to graded glucose infusion; settings: for LS mean change in insulin secretion rate at each glucose infusion rate, placebo vs treatment: 72 hours after dosing, p<0.001
# Experimental: (§1) A Phase I, randomized, placebo-controlled, positive-controlled two-part study was performed in healthy male and female subjects to evaluate the effect of a range of doses on beta cell response to a glucose load and to assess the effect of these doses on gastric emptying. Beta cell function was assessed by calculation of prehepatic insulin secretion in response to a graded glucose infusion. Gastric emptying was assessed by measurement of plasma appearance of ingested acetaminophen.
# (§2) During Part 2, subjects in Cohort 2 received placebo on Day 1, followed by 8 mg of the extended half-life GLP-1/GIP coagonist peptide on Day 2. Subjects in Cohort 3 received placebo on Day 1, followed by 4 mg of the extended half-life GLP-1/GIP coagonist peptide on Day 2. Subjects in Cohort 4 received placebo on Day 1, followed by 16 mg of the extended half-life GLP-1/GIP coagonist peptide on Day 2.
# (§3) Blood samples for glucose, C-peptide, insulin, and safety laboratory tests were drawn at −120, −15, and −10 minutes. At −10 minutes, subjects ingested 1000 mg acetaminophen elixir with 240 mL water. At 0 minutes, a step-wise infusion of glucose (20% dextrose) was started, a second SC injection of placebo was administered, and blood samples for glucose, C-peptide, insulin, and safety laboratory tests were drawn. Glucose was infused for a total of 2.5 hours at a rate of 2, 4, 6, 8, and 12 mg/kg/min. Each level of glucose infusion was maintained for 30 minutes. Blood samples for glucose, C-peptide, and insulin were drawn again at 10, 20, and 30 minutes during each 30-minute infusion period. Blood samples for plasma acetaminophen concentration were drawn at −10, 30, 60, 90, 120, 150, 180, 210, 240, 300, and 480 minutes.
# (§4) Blood samples for glucose, C-peptide, and insulin were drawn at −120, −15, and −10 minutes. At −10 minutes, subjects ingested 1000 mg acetaminophen elixir with 240 mL water. […] Glucose was infused for a total of 2.5 hours at a rate of 2, 4, 6, 8, and 12 mg/kg/min. Each level of glucose infusion was maintained for 30 minutes. […] Blood samples for glucose, C-peptide, and insulin were drawn at 10, 20, and 30 minutes during each 30-minute infusion period. Blood samples for plasma acetaminophen concentration were drawn at −10, 30, 60, 90, 120, 150, 180, 210, 240, 300, and 480 minutes.
# (§5) Blood samples for glucose, C-peptide, insulin, and safety laboratory tests were drawn at −15 and −10 minutes. At −10 minutes, subjects ingested 1000 mg acetaminophen elixir with 240 mL water. At 0 minutes, a step-wise infusion of glucose (20% dextrose) was started and blood samples for glucose, C-peptide, and insulin were drawn. Glucose was infused for a total of 2.5 hours at a rate of 2, 4, 6, 8, and 12 mg/kg/min. Each level of glucose infusion was maintained for 30 minutes. Blood samples for glucose, C-peptide, and insulin were drawn again at 10, 20, and 30 minutes during each 30-minute infusion period. Blood samples for plasma acetaminophen concentration were drawn at −10, 30, 60, 90, 120, 150, 180, 210, 240, 300, and 480 minutes.
# On Day 2, following an overnight fast of 10 hours, a blood sample for glucose, C-peptide, and insulin was drawn at −10 minutes. Subjects received an injection of extended half-life GLP-1/GIP coagonist peptide at 0 minutes. Subjects in Cohort 2 received 8 mg of extended half-life GLP-1/GIP coagonist peptide, subjects in Cohort 3 received 4 mg of extended half-life GLP-1/GIP coagonist peptide, and subjects in Cohort 4 received 16 mg of extended half-life GLP-1/GIP coagonist peptide. At 0 minutes, a blood sample for extended half-life GLP-1/GIP coagonist peptide concentration, C-peptide, insulin, glucose, and safety laboratory tests was drawn.
# At −10 minutes, subjects ingested 1000 mg acetaminophen elixir with 240 mL water. […] Glucose was infused for a total of 2.5 hours at a rate of 2, 4, 6, 8, and 12 mg/kg/min. Each level of glucose infusion was maintained for 30 minutes.
# [2] = Phase I single-ascending dose study, safety, tolerability, PK and PD, single SC injection; settings: for mean daily fasting glucose level by day 7: healthy subjects (placebo 78.7)
# Experimental: A Phase I, randomized, placebo-controlled, sequential, single-ascending, two period, study was performed in healthy male subjects to evaluate the safety, tolerability, pharmacokinetic (PK), and pharmacodynamic (PD) properties of extended half-life GLP-1/GIP coagonist peptide. Healthy adult male subjects (about 18 to 55 years of age) who were in general good health based on medical history, physical examination, ECG, and routine laboratory tests (e.g., blood, chemistry, hematology, urinalysis, and drug screen) with a body mass index between 20 kg/m^2 and 30 kg/m^2 were selected for the study. The extended half-life GLP-1/GIP coagonist peptide tested in all of the Examples was SEQ ID NO: 153.
# The subjects were randomized into cohorts.
# Following an overnight fast of at least 10 hours, the subjects received a single dose of the study drug or placebo as a subcutaneous (SC) injection in the abdomen. Blood samples were collected for fasting insulin, glucose, and glucagon levels pre-dose (i.e., within 30 minutes prior to dosing) on Day 1 and on Days 2, 3, 4, 5, 6, and 7. Plasma samples for pharmacokinetic analysis were collected pre-dose and at 0.5, 1, 2, 4, 8, and 12 hours post-dose on Day 1 and on Days 2, 3, 4, 5, 6, 7, 14, 28, and 35. The subjects were monitored through Day 35 for adverse events, weight, and vital signs.
# [3] = test system: gastric emptying; assay: Phase I two-part study, gastric emptying by plasma appearance of ingested acetaminophen
# Experimental: as §1, §2, §3, §4, §5
# At −10 minutes, subjects ingested 1000 mg acetaminophen elixir with 240 mL water. […] Glucose was infused for a total of 2.5 hours at a rate of 2, 4, 6, 8, and 12 mg/kg/min. Each level of glucose infusion was maintained for 30 minutes. […] Blood samples for plasma acetaminophen concentration were drawn at −10, 30, 60, 90, 120, 150, 180, 210, 240, 300, and 480 minutes.
# [4] = 4 mg, 8 mg, 16 mg, graded glucose infusion
# [5] = 4 mg, 8 mg, 16 mg, 72 hours after dosing
substance,measurement,setting,value
extended half-life GLP-1/GIP coagonist peptide: The extended half-life GLP-1/GIP coagonist peptide tested in all of the Examples was SEQ ID NO: 153 (Y[Aib]EGTFTSDYSIYLDKQAA[Aib]EFVC(PEG 40 kDa)WLLAGGPSSGAPPPSK-NH2),"LS mean change in C peptide, comparison between dose groups","[1]; 4 mg vs 8 mg groups, p=0.0055",0.01 ng/mL per mg/dL
same,"LS mean change in insulin secretion rate, comparison between dose groups","[1]; 4 mg vs 8 mg groups, p=0.0067",0.01 μIU/mL per mg/dL
same,"LS mean change in insulin, comparison between dose groups","[1]; 4 mg vs 8 mg groups, p=0.0251",0.09 μIU/mL per mg/dL
same,"LS mean change in C peptide, comparison between dose groups","[1]; 4 mg vs 16 mg groups, p<0.0001",0.03 ng/mL per mg/dL
same,"LS mean change in insulin secretion rate, comparison between dose groups","[1]; 4 mg vs 16 mg groups, p<0.0001",0.04 μIU/mL per mg/dL
same,"LS mean change in insulin, comparison between dose groups","[1]; 4 mg vs 16 mg groups, p<0.0001",0.17 μIU/mL per mg/dL
same,C-peptide level in comparison to placebo,[1]; [4],"dose dependent, dose proportional, increase"
same,insulin secretion rate (ISR) in comparison to placebo,[1]; [4],"dose dependent, dose proportional, increase"
same,"LS mean change in insulin secretion rate at each glucose infusion rate, placebo vs treatment",[1]; 4 mg,0.03 μIU/mL
same,"LS mean change in C peptide at each glucose infusion rate, placebo vs treatment","[1]; 4 mg, p<0.0001",0.02 ng/mL per mg/dL
same,"LS mean change in insulin at each glucose infusion rate, placebo vs treatment","[1]; 4 mg, p<0.0001",0.27 μIU/mL per mg/dL
same,"LS mean change in C peptide, comparison between dose groups","[1]; 8 mg vs 16 mg groups, p<0.0001",0.02 ng/mL per mg/dL
same,"LS mean change in insulin secretion rate, comparison between dose groups","[1]; 8 mg vs 16 mg groups, p<0.0001",0.03 μIU/mL per mg/dL
same,"LS mean change in insulin, comparison between dose groups","[1]; 8 mg vs 16 mg groups, p=0.0316",0.08 μIU/mL per mg/dL
same,"LS mean change in insulin secretion rate at each glucose infusion rate, placebo vs treatment",[1]; 8 mg,0.04 μIU/mL
same,"LS mean change in C peptide at each glucose infusion rate, placebo vs treatment","[1]; 8 mg, p<0.0001",0.03 ng/mL per mg/dL
same,"LS mean change in insulin at each glucose infusion rate, placebo vs treatment","[1]; 8 mg, p<0.0001",0.35 μIU/mL per mg/dL
same,increase in insulin secretion rate,"[1]; 16 mg (maximum dose), vs placebo, p=0.001",approximately 44%
same,change in glucose levels between the 8 mg/kg/min and 12 mg/kg/min infusion rates,[1]; 16 mg and 8 mg groups,no increases in glucose levels
same,"LS mean change in insulin secretion rate at each glucose infusion rate, placebo vs treatment",[1]; 16 mg,0.07 μIU/mL
same,"LS mean change in C peptide at each glucose infusion rate, placebo vs treatment","[1]; 16 mg, p<0.0001",0.05 ng/mL per mg/dL
same,"LS mean change in insulin at each glucose infusion rate, placebo vs treatment","[1]; 16 mg, p<0.0001",0.43 μIU/mL per mg/dL
same,glucose levels compared to placebo group,"[1]; all dose groups, all glucose infusion rates",lower glucose levels than the placebo group
same,AUC (AUC0-144),"[2]; 0.1 mg single SC dose, plasma","12,349 pM·hr"
same,Cmax,"[2]; 0.1 mg single SC dose, plasma",0.183 nM
same,AUC (AUC0-144),"[2]; 8 mg single SC dose, plasma","1,382,376 pM·hr"
same,Cmax,"[2]; 8 mg single SC dose, plasma",13 nM
same,mean daily fasting glucose level by day 7,[2]; 16 mg dose,76.5 mg/dL
same,time to maximum observed plasma concentration (Tmax),[2]; 16 mg single SC dose,112.5 h
same,mean daily fasting glucose level by day 7,[2]; 24 mg dose,72.7 mg/dL
same,time to maximum observed plasma concentration (Tmax),[2]; 24 mg single SC dose,56.0 h
same,mean daily fasting glucose level by day 7,[2]; 32 mg dose,71.7 mg/dL
same,time to maximum observed plasma concentration (Tmax),[2]; 32 mg single SC dose,80.0 h
same,AUC (AUC0-last),"[2]; 32 mg single SC dose, plasma","12,582 nM·hr"
same,Cmax,"[2]; 32 mg single SC dose, plasma",54.8 nM
same,absolute bioavailability,[2]; SC injection,100%
same,dose proportionality of AUC and Cmax,[2]; doses ranging from 0.1 mg to 32 mg,dose proportional
same,"dose-related trends for fasting insulin, glucose and glucagon levels",[2]; healthy subjects,No dose-related trends
same,apparent t1/2,"[2]; plasma, single SC dose, healthy male subjects",approximately 5 days
same,safety and tolerability,"[2]; single SC doses 0.1 mg to 32 mg, healthy male subjects","generally safe and well tolerated; also recorded: well tolerated and not associated with adverse events, clinically important laboratory findings, or ECG findings"
same,Cmax of plasma acetaminophen,[3]; [5],trend toward lower Cmax at a higher dose
same,Tmax of plasma acetaminophen compared to placebo,[3]; [5],not significantly different from placebo
same,total acetaminophen absorbed (AUC0-4 hr) compared to placebo,[3]; [5],not significantly different from placebo
same,delay in the absorption of acetaminophen,"[3]; 4 mg, 8 mg, 16 mg, 72 hours after dosing, 1000 mg acetaminophen",not associated with a significant delay
same,effect on gastric emptying,[3]; doses that increase insulin secretion in response to a glucose infusion,does not delay gastric emptying
